Assays:
Assay type in all cases: in vivo
[1] = tested on: lower urinary tract obstruction model of rats (female); assay: Test Example 1: urination function in lower urinary tract obstruction model of female rats; conditions: oral once a day 2 weeks, Compound B 3 mg/kg and 10 mg/kg
Excerpt: A lower urinary tract obstruction model of rats was used as a test system. A test substance was orally administered to the lower urinary tract obstruction model repeatedly over two (2) weeks to examine the action on the urination function in the lower urinary tract obstruction model.
More specifically, the rats (female, Crl:CD(SD), 8-week-old; Charles River Laboratories Japan, Inc.) were operated to form lower urinary tract obstruction and repeatedly received oral administration of the test substance at a frequency of once a day over two (2) weeks. After the completion of the administration, each rat was subjected to bladder catheterization under anesthesia, cystometry under no anesthesia, then cystometry under urethane anesthesia, and euthanasia under deep anesthesia, and the tissues (bladder, kidney) of the rat were extracted or surgically removed. As a normal group, the rats without operation for forming lower urinary tract obstruction were used.
The test system, the test substances, and the dosage are as follows. • Normal group: 0.5 v/v % Polysorbate 80 solution, 10 mL/kg (n=6) • Solvent group (control group): 0.5 v/v % Polysorbate 80 solution, 10 mL/kg (n=15) • Group A: Compound A, 10 mg/kg (n=15) • Group B3: Compound B, 3 mg/kg (n=7) • Group B10: Compound B, 10 mg/kg (n=7)
After urination, the residual urine was aspirated from the outlet end of the catheter placed in the bladder to measure the volume (mL) of the residual urine.
After urination, the weight of the voided urine was measured to determine the voided volume (g=mL), and then the urination efficiency was calculated by the following equation: Urination efficiency (%)=[(Voided volume (mL))/(Voided volume (mL)+Residual urine volume (mL))]×100
Bladder capacity (mL)=Voided volume (mL)+Residual urine volume (mL)
Moreover, the wet weight of the extracted bladder and that of the extracted kidney were measured.

[2] = tested on: rats having the urination disorder associated with diabetes; assay: Test Example 6: urination disorder model associated with streptozocin-induced diabetes, compound A versus compound C; conditions: STZ diabetes model
Experimental: As described below, a model of a urination disorder associated with streptozocin-induced diabetes was prepared as a urination disorder model in accordance with Test Example 4 to evaluate the effects of the compound A and the compound C on a urination disorder. This model has no benign prostatic hyperplasia and is a model of a urination disorder associated with neuropathy and smooth muscle contraction disorder.
The body weights of Rats (male, Crl:CD(SD), 5-week-old; Charles River Laboratories Japan, Inc.) were measured. On the basis of the body weight, the rats were grouped or divided into two (2) groups. The day after the rats were grouped, a first group received intraperitoneal administration of a citrate buffer (pH 4.5) (10 mL/kg) having a concentration of 0.1 mmol/L, and a second group received intraperitoneal administration of streptozocin (STZ; Sigma-Aldrich) (50 mg/kg). Streptozocin (STZ) was administered in the form of a solution of streptozocin having a concentration of 5 mg/mL in the citrate buffer.
About one (1) week after streptozocin (STZ) was administered, the body weight and the fasting blood glucose were measured. In the streptozocin (STZ) administration group (the second group), individuals having a fasting blood glucose level of not less than 300 mg/dL were used as animals with induced diabetes. These animals with induced diabetes are a model having no abnormality of the prostate (having no benign prostatic hyperplasia). On the basis of the body weight and the fasting blood glucose level, the animals (models) with induced diabetes were grouped or divided into three (3) groups by randomized, multivariable block allocation.
To the three model groups with induced diabetes, a 0.5 v/v % Polysorbate 80 solution (0.5% P) (10 mL/kg), the compound A (3 mg/kg), and the compound C (dutasteride) (0.3 mg/kg) were orally administered, respectively, wherein the administration schedule in all groups was a frequency of once a day, only on weekdays, over four (4) weeks. Moreover, to the above-mentioned first group, a 0.5 v/v % Polysorbate 80 solution (0.5% P) (10 mL/kg) was orally administered in the same administration schedule (normal group). On the last day of administration, a cannula was inserted into and secured to the dome of the bladder under isoflurane anesthesia, and cystometry (Cystometogram, CMG) was conducted in the order of under awake condition and under urethane anesthesia to measure the intravesical pressure, the voided volume, and the residual urine volume. After the completion of the measurement, the blood was collected under deep isoflurane anesthesia, and then the prostate (ventral prostate, dorsolateral prostate) was extracted and each was weighed. Moreover, the blood glucose level in the collected blood was measured.
Normal group: citrate buffer 10 mL/kg (intraperitoneal administration), 0.5% P 10 mL/kg (oral administration) (n=10) • Solvent group (control group): STZ 50 mg/kg (intraperitoneal administration), 0.5% P 10 mL/kg (oral administration) (n=10) • Group A3: STZ 50 mg/kg (intraperitoneal administration), Compound A 3 mg/kg (oral administration) (n=10) • Group C0.3: STZ 50 mg/kg (intraperitoneal administration), Compound C (dutasteride) 0.3 mg/kg (oral administration) (n=10)
Urination parameter: In the same manner as in Test Example 4, the residual urine volume (mL) and the urination efficiency (%) were determined as urination parameters in each urination, and the average value of two measurements was taken as a measured value of each individual.
Prostate weight: In the same manner as in Test Example 4, the weight of the prostate (ventral prostate, dorsolateral prostate, and whole) was converted to a tissue weight per 100 g of the body weight. For Group A3, which received the compound A, and Group C0.3, which received the compound C, the inhibition rate of the weight of the prostate relative to the weight of the prostate in the solvent group was calculated (with one decimal place). […]

ovariectomized rats = assay: Test Example 5: antiprogesterone activity, uterine weight associated with rat deciduoma formation; conditions: Rattus norvegicus, 192 h; ovariectomized rats, estrone + progesterone, oral 3 mg/kg once a day 8 days, compared with the solvent group; read-out: inhibition rate (increase of uterine weight, deciduoma formation)
Experimental: For the compound A and the compound D (mifepristone), the antiprogesterone activity was measured. Specifically, a sex hormone and a test substance were repeatedly administered to ovariectomized rats as a test system to examine the antiprogesterone action (antiprogesterone activity) based on, as an index, the fluctuation of the uterine weight (the inhibitory action relative to the increase of the weight) associated with rat deciduoma formation.
More specifically, rats (female, Crl:CD(SD), 5-week-old: Charles River Laboratories Japan, Inc.) were subjected to ovariectomy, and from one (1) week after the ovariectomy, a high dose estrone of 5 μg/one animal was hypodermically administered to the rats once a day for three (3) days. From the day after one day rest period, the rats received, once a day over eight (8) days, hypodermic administration of a low dose estrone (1 μg/one animal), intramuscular administration of progesterone (6 mg/kg), and oral administration of a test substance. In the middle of the administration, on Day 4 of the start of administration, the rats were subjected to a stimulation treatment of decidualization reaction to the right uterus. The day after the final administration, the uterine weight (right uterine body) was measured (n=6). Group E was subjected to ovariectomy and a stimulation treatment of decidualization reaction but was not subjected to a hormone treatment.
Group E: rats with ovariectomy without hormone treatment 0.5 v/v % Polysorbate 80 solution, 10 mL/kg (n=6) • Solvent group (control group): 0.5 v/v % Polysorbate 80 solution, 10 mL/kg (n=6) • Group A3: Compound A, 3 mg/kg (n=6) • Group A10: Compound A, 10 mg/kg (n=6) • Group A30: Compound A, 30 mg/kg (n=6) • Group D: Compound D (mifepristone), 3 mg/kg (n=6)

[3] = female rats, lower urinary tract obstruction, vs control group
[4] = Compound C 0.3 mg/kg, in comparison with the solvent group
[5] = Compound C oral 0.3 mg/kg, 4 weeks
[6] = Compound C oral 0.3 mg/kg, relative to solvent group

CC(=O)O[C@]1(C(C)=O)CC[C@H]2[C@@H]3C=C(Cl)C4=CC(=O)OC[C@]4(C)[C@H]3CC[C@@]21C [Compound B, 17α-acetoxy-6-chloro-2-oxa-4,6-pregnadiene-3,20-dione, reference compound]
survival rate ([1]; female lower urinary tract obstruction rats): decreased
wet weights of the bladder and the kidney ([1]; female rats, lower urinary tract obstruction): rather in the direction of increasing
residual urine volume ([1]; female rats, lower urinary tract obstruction, vs control (solvent) group): significantly increased
bladder capacity [1, 3]: significantly increased
urination efficiency [1, 3]: reduced

C[C@]12C=CC(=O)N[C@@H]1CC[C@@H]1[C@@H]2CC[C@]2(C)[C@@H](C(=O)Nc3cc(C(F)(F)F)ccc3C(F)(F)F)CC[C@@H]12 [Compound C, dutasteride, reference compound]
position in nomogram analysis (bladder contraction force) ([2]; Compound C 0.3 mg/kg): at almost the same position as the solvent group
therapeutic effect on diabetes ([2]; Compound C 0.3 mg/kg): no therapeutic effect
weights of the ventral prostate, the dorsolateral prostate, and the whole prostate ([2]; Compound C 0.3 mg/kg, compared with the solvent group (P<0.05)): significant decrease
residual urine volume, cystometry (CMG) under awake condition [2, 4]: did not statistically affect
urination efficiency, cystometry (CMG) under awake condition [2, 4]: did not statistically affect
effect on the blood glucose level ([2]; Compound C 0.3 mg/kg, vs solvent group): did not statistically affect
Prostate weight, ventral prostate ([2]; Compound C (dutasteride) oral 0.3 mg/kg, 4 weeks): 58.4 ± 8.4 mg/100 g body weight
Blood glucose level [2, 5]: 984.2 ± 282.0 mg/dL
Prostate weight, dorsolateral prostate [2, 5]: 40.5 ± 6.3 mg/100 g body weight
Prostate weight, whole [2, 5]: 98.9 ± 12.2 mg/100 g body weight
Dorsolateral prostate atrophy rate [2, 6]: (37.5%)
Ventral prostate atrophy rate [2, 6]: (42.7%)
Whole prostate atrophy rate [2, 6]: (40.7%)

CC#C[C@]1(O)CC[C@H]2[C@@H]3CCC4=CC(=O)CCC4=C3[C@@H](c3ccc(N(C)C)cc3)C[C@@]21C [Compound D, mifepristone, reference compound]
inhibition at 3 mg/kg (ovariectomized rats): 89.5%

Reference: patent publication US20240041899A1, “SOLID PREPARATION” (ASKA Pharmaceutical Co., Ltd., priority 2020, published 2024)
